Measurements as given in PubChem BioAssay (NCI).
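Step 1: Grow cells in 96-well plates. Step 2: Expose to compound for 48 hours at 5 concentrations. Step 3: Interpolate endpoints linearly; if unreached, use highest concentration. The concentration for 50% growth inhibition is given as GI50. TGI marks complete inhibition of growth.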

Legend:
Assay in all cases: inhibition of tumour cell growth, NCI panel, 48 h
OVCAR-3 ovarian = tested on: OVCAR-3 ovarian
UO-31 renal = tested on: UO-31 renal
LOX IMVI melanoma = tested on: LOX IMVI melanoma
786-0 renal = tested on: 786-0 renal
HT29 colon = tested on: HT29 colon
SR leukemia = tested on: SR leukemia
MDA-MB-231 breast = tested on: MDA-MB-231 breast
EKVX NSCLC = tested on: EKVX NSCLC
OVCAR-8 ovarian = tested on: OVCAR-8 ovarian
COLO 205 colon = tested on: COLO 205 colon

| Compound | GI50 (OVCAR-3 ovarian) [µM] | TGI (OVCAR-3 ovarian) [µM] | GI50 (UO-31 renal) [µM] | TGI (UO-31 renal) [µM] | GI50 (LOX IMVI melanoma) [µM] | TGI (LOX IMVI melanoma) [µM] | GI50 (786-0 renal) [µM] | TGI (786-0 renal) [µM] | GI50 (HT29 colon) [µM] | TGI (HT29 colon) [µM] | GI50 (SR leukemia) [nM] | TGI (SR leukemia) [µM] | GI50 (MDA-MB-231 breast) [µM] | TGI (MDA-MB-231 breast) [µM] | GI50 (EKVX NSCLC) [µM] | TGI (EKVX NSCLC) [µM] | GI50 (OVCAR-8 ovarian) [µM] | TGI (OVCAR-8 ovarian) [µM] | GI50 (COLO 205 colon) [µM] | TGI (COLO 205 colon) [µM] |
| --- | --- | --- | --- | --- | --- | --- | --- | --- | --- | --- | --- | --- | --- | --- | --- | --- | --- | --- | --- | --- |
| CC[C@]12CCCN3CC[C@]4(C(=C(C(=O)OC)C1)Nc1ccccc14)[C@@H]32 | 17 | 31.1 | 10.9 | 24.1 | 14.3 | 27.5 | 13.9 | 29.1 | 14.1 | 33.9 | 17200 | > 100 | 15.5 | 38.1 | 18.9 | 63.1 | 17.6 | 38.9 | 16.9 | 35.7 |
| COc1ccc(Cn2c(Br)c3c(c2-c2cc(OC)c(OC)c(OC)c2)CCc2sc(NC(C)=O)nc2-3)cc1 | 3.63 | > 100 | 3.69 | 35.1 | 4.45 | 42.8 | 4.2 | > 100 | 3.41 | 11.1 | 2440 | > 100 | 3.22 | 43.6 |  |  | 4.7 | > 100 | 2.53 | 5.78 |
| COC(=O)C1C2CCCN2OC1(C)CO (centres undefined) |  | > 100 |  | > 100 |  | > 100 |  | > 100 |  | > 100 |  | > 100 |  | > 100 |  | > 100 |  | > 100 |  | > 100 |
| Cc1nc2cc(N)c(Cl)cc2[nH]1 |  | > 100 |  | > 100 |  | > 100 |  | > 100 |  | > 100 |  | > 100 |  | > 100 |  | > 100 |  | > 100 |  | > 100 |
| O=C(/C=C/c1cccnc1)c1ccccc1O | 20.5 | 55.2 | 13.4 | 28.9 | 14.4 | 30.8 | 17.2 | 31.8 | 21.4 | 58.7 | 12300 | 64.6 | 17.7 | 46.7 | 34.7 | > 100 | 31.5 | > 100 | 14.6 | 30.1 |
| Nc1c(C(=O)Nc2ccccc2)sc2nc3c(cc12)CCCC3 | 0.481 | 12.3 | 1.48 | > 100 | 0.908 | > 100 | 0.706 | 55 | 0.74 | > 26.3 | 360 | 19.6 | 3.93 | > 100 |  |  | 1.8 | > 100 | 1.24 | 13.8 |
| CCc1ccc(Nc2cc(C)nc3nc(C)nn23)cc1 | 37.8 | > 100 | 23.6 | > 100 | 46 | > 100 | > 100 | > 100 | 39.8 | > 100 | 53100 | > 100 | 31.4 | > 100 |  |  | 79.8 | > 100 | 66.9 | > 100 |
| CSc1nc2c(c(=O)[nH]1)C(c1ccc(Cl)cc1)C1=C(N2)/C(=C/c2ccc(Cl)cc2)CNC1 (centres undefined) | 2.23 | 5.19 | 1.43 | 2.91 | 1.9 | 3.81 | 2.02 | 4.46 | 2.05 | 5.09 | 1900 | 5.87 | 1.75 | 4.48 |  |  | 2.7 | 8.72 | 1.91 | 3.53 |
| COc1ccc(-c2coc3cc(OC)cc(O)c3c2=O)cc1 |  | > 100 |  |  |  | > 100 |  | > 100 |  | > 100 |  | > 100 |  | > 100 |  | > 100 |  | > 100 |  | > 100 |
| O=CC1(C2(C=O)c3ccccc3-c3ccccc32)c2ccccc2-c2ccccc21 | 1.4 | 3.39 | 1.92 | 4.32 | 1.89 | 3.98 | 2.16 | 5.34 | 1.32 | 2.51 | 1650 | 3.43 | 2.8 | 6.98 | 1.96 | 5.24 | 2.2 | 6.08 |  |  |
